≈ marks a conversion by molar mass, not a printed value.
Tests used:
Assay type in all cases: functional
Shigella flexneri [1] = experiment: Antimicrobial activity against Shigella flexneri isolate AM13291 by broth microdilution method
Shigella [2] = experiment: Antimicrobial activity against Shigella isolate DH-13291 by broth microdilution method
Shigella flexneri [3] = experiment: Antimicrobial activity against Shigella flexneri isolate AM19035 by broth microdilution method
Shigella [4] = experiment: Antimicrobial activity against Shigella isolate DH-19035 by broth microdilution method
Shigella sonnei [5] = experiment: Antimicrobial activity against Shigella sonnei isolate AM20369 by broth microdilution method
Shigella [6] = experiment: Antimicrobial activity against Shigella isolate DH-20369 by broth microdilution method
Shigella sonnei [7] = experiment: Antimicrobial activity against Shigella sonnei isolate AM22451 by broth microdilution method
Shigella [8] = experiment: Antimicrobial activity against Shigella isolate DH-22451 by broth microdilution method
Shigella sonnei [9] = experiment: Antimicrobial activity against Shigella sonnei isolate AM22855 by broth microdilution method
Shigella [10] = experiment: Antimicrobial activity against Shigella isolate DH-22855 by broth microdilution method
Shigella flexneri [11] = experiment: Antimicrobial activity against Shigella flexneri isolate AM26336 by broth microdilution method
Shigella [12] = experiment: Antimicrobial activity against Shigella isolate DH-26336 by broth microdilution method

MIC (Shigella flexneri [1]) [µg/mL]	MIC (Shigella [2]) [µg/mL]	MIC (Shigella flexneri [3]) [µg/mL]	MIC (Shigella [4]) [µg/mL]	MIC (Shigella sonnei [5]) [µg/mL]	MIC (Shigella [6]) [µg/mL]	MIC (Shigella sonnei [7]) [µg/mL]	MIC (Shigella [8]) [µg/mL]	MIC (Shigella sonnei [9]) [µg/mL]	MIC (Shigella [10]) [µg/mL]	MIC (Shigella flexneri [11]) [µg/mL]	MIC (Shigella [12]) [µg/mL]	SMILES
16 (≈ 28.9 µM)	32 (≈ 57.7 µM)	32 (≈ 57.7 µM)	32 (≈ 57.7 µM)	64 (≈ 115 µM)	> 64	> 64	> 64	64 (≈ 115 µM)	> 64	16 (≈ 28.9 µM)	32 (≈ 57.7 µM)	CO/N=C(\C(=O)N[C@@H]1C(=O)N2C(C(=O)O)=C(CSc3nc(=O)c(O)nn3C)CS[C@H]12)c1csc(N)n1 [CEFTRIAXONE]
8 (≈ 17.6 µM)	32 (≈ 70.3 µM)	32 (≈ 70.3 µM)	64 (≈ 141 µM)	64 (≈ 141 µM)	128 (≈ 281 µM)	64 (≈ 141 µM)	128 (≈ 281 µM)	64 (≈ 141 µM)	64 (≈ 141 µM)	8 (≈ 17.6 µM)	64 (≈ 141 µM)	CO/N=C(\C(=O)N[C@@H]1C(=O)N2C(C(=O)O)=C(COC(C)=O)CS[C@H]12)c1csc(N)n1 [CEFOTAXIME]
2 (≈ 4.16 µM)	4 (≈ 8.32 µM)	2 (≈ 4.16 µM)	4 (≈ 8.32 µM)	8 (≈ 16.6 µM)	16 (≈ 33.3 µM)	8 (≈ 16.6 µM)	16 (≈ 33.3 µM)	8 (≈ 16.6 µM)	16 (≈ 33.3 µM)	2 (≈ 4.16 µM)	4 (≈ 8.32 µM)	CO/N=C(\C(=O)N[C@@H]1C(=O)N2C(C(=O)[O-])=C(C[N+]3(C)CCCC3)CS[C@H]12)c1csc(N)n1 [CEFEPIME]

SMILES	MIC (Shigella flexneri [1]) [µg/mL]	MIC (Shigella [2]) [µg/mL]	MIC (Shigella flexneri [3]) [µg/mL]	MIC (Shigella [4]) [µg/mL]	MIC (Shigella sonnei [5]) [µg/mL]	MIC (Shigella [6]) [µg/mL]	MIC (Shigella sonnei [7]) [µg/mL]	MIC (Shigella [8]) [µg/mL]	MIC (Shigella sonnei [9]) [µg/mL]	MIC (Shigella [10]) [µg/mL]	MIC (Shigella flexneri [11]) [µg/mL]	MIC (Shigella [12]) [µg/mL]
CC(C)(O/N=C(\C(=O)N[C@@H]1C(=O)N2C(C(=O)[O-])=C(C[n+]3ccccc3)CS[C@H]12)c1csc(N)n1)C(=O)O [CEFTAZIDIME]	0.5 (≈ 0.915 µM)	2 (≈ 3.66 µM)	0.5 (≈ 0.915 µM)	2 (≈ 3.66 µM)	8 (≈ 14.6 µM)	16 (≈ 29.3 µM)	8 (≈ 14.6 µM)	32 (≈ 58.5 µM)	8 (≈ 14.6 µM)	16 (≈ 29.3 µM)	0.5 (≈ 0.915 µM)	4 (≈ 7.32 µM)

Source: ChEMBL document CHEMBL1255459, “Identification and characterization of CTX-M-producing Shigella isolates in the United States” (2010)
